Columns and labels:
Assay type in all cases: cell-based, Human
[1] = test system: THP-1 cells; experiment: FACS analysis of surface receptor expression in THP-1 cells (no LPS)
Experimental: Human THP-1 monocytoid cells (acute monocytic leukemia) were obtained from American Type Tissue Collection (#TIB-202). Cells were cultured in RPMI-1640 medium supplemented with 2 mM L-glutamine, 10 mM HEPES, 1.0 mM sodium pyruvate, 10% fetal bovine serum and antibiotics. Cells were seeded (5×10^5 cells/well, 6-well culture plates) 24 h prior to treatment with OxBC and harvested for analysis according to three protocols: 1) Cells were treated with OxBC (2.5, 7.5 or 12.5 μM) for 24 h and than evaluated for surface receptor expression; 2) Cells were treated with OxBC (0.1, 0.5 or 1.0 μM) for 24 h, at which point fresh media lacking OxBC was supplied for 48 h prior to analysis, and 3) Cells were treated with OxBC (0.1, 0.5 or 1.0 μM) for 24 h, at which point fresh media lacking OxBC was supplied for 5 days. Treated cells were then stimulated with LPS (15 ng/ml) for 24 h prior to analysis. Cells incubated in an equivalent percentage (v/v) of DMSO alone served as controls. For studies in which LPS stimulation was not employed, PMA 25 ng/ml) was used as positive stimulator of monocytes differentiation.
Phycoerythrin (PE)-labeled primary antibodies against human CD11b, CD14, CD16, CD36, CD51/CD61, HLA (broad isoforms), HLA-B7, CD86, CD40, CD40L and CD3 were obtained from AbCam. Receptor expression was evaluated using direct immunofluorescence labeling and flow cytometry analysis. Briefly, triplicate cell aliquots in cold buffer (PBS containing 10% FBS and 1% sodium azide) were incubated with primary antibody (10-20 μl) for 45 min at room temperature under low light conditions. Cells were washed three times and resuspended in 500 μl of buffer for analysis using a FacsAria cell sorter. Unlabeled cells and cells labeled with antibody alone served as controls.

[2] = test system: THP-1 cells; experiment: Cytokine release ELISA, naive THP-1 cells treated directly
Experimental: Human THP-1 monocytoid cells (acute monocytic leukemia) were obtained from American Type Tissue Collection (#TIB-202). Cells were cultured in RPMI-1640 medium supplemented with 2 mM L-glutamine, 10 mM HEPES, 1.0 mM sodium pyruvate, 10% fetal bovine serum and antibiotics. Peripheral blood monocytes (PBM) and lymphocytes (PBL) were isolated from PBMC by positive and negative selection, respectively, using the Miltenyi Biotec MACs magnetic separation system. PBM were cultured in RPMI-1640 medium supplemented with 2 mM L-glutamine, 10 mM HEPES, 1.0 mM sodium pyruvate, 20% fetal bovine serum and antibiotics. PBL were seeded in the same medium with the exception that 10% FBS was used. Specific cell densities and experimental conditions are described below.
Cells were evaluated in both naïve challenge and LPS challenge models. For naive studies, cells were exposed directly to OxBC for varying time frames and cytokine expression evaluated in conditioned medium (CM) by ELISA. For LPS challenge, cells were first incubated with OxBC for the indicated time, at which point OxBC was removed and replaced with fresh medium lacking the compound. At different time points post-treatment, cells were then challenged with LPS (15 ng/ml) for 24 h prior to cytokine levels in CM being evaluated by ELISA. In a variation of the LPS challenge scenario, primary PBM were first challenged with LPS for 24 h. After this initial stimulation, LPS-treated cells were then exposed to OxBC for 24 h before CM was harvested for ELISA analysis.
Analysis of cytokine levels in CM was performed using Endogen Human ELISA kits (Pierce) according to manufacturer's instructions. CM was prepared by centrifugation to remove cellular debris and either used neat, diluted with complete medium or concentrated using Nanosep 3K centrifugal concentrators (Pall) to ensure that cytokine levels fell within the linear ranges of each assay. Where appropriate, samples were stored at −80° C. and thawed by gradual equilibration at room temperature prior to use. Briefly, 50 μl samples were added to each well of a microplate to which antibody specific to the cytokine of interest had been adsorbed and incubated at room temperature for 1-3 h. Plates were washed three times to remove nonspecifically bound material and incubated for an additional 1-3 h with biotinylated antibody specific to the cytokine of interest. After washing, plates were incubated for 30 min with steptavidin-horse radish peroxidase reagent followed by an additional washing cycle. Washed plates were incubated for 30 min with 3,3′,5,5′-tetramethylbenzidine (TMB) substrate, the reaction stopped and absorbance measured at 450 nm (550 nm reference). Reference curves were generated for each cytokine using the supplied recombinant standard.
A primary proof-of-principle study was conducted in THP-1 cells that were untreated (mock) or treated for 24 h with OxBC, PMA (25 ng/ml) and vehicle (DMSO). […] Moreover, no change in MCP-1 and IL-8 expression was detected at lower concentrations of the compound. Both MCP-1 and IL-8 function as cytokines to recruit immune cells to sites of infection or injury. For example, IL-8 primarily recruits neutrophils within an inflammatory response and is also termed neutrophils recruitment factor (NRF), while MCP-1 primarily functions to recruit other monocytes. Expression of either cytokine by monocytes/macrophages is induced in response to detection of antigen or phagocytosis of an invading pathogen.

[3] = test system: THP-1 cells; experiment: Vybrant phagocytosis assay (fluorescein-labeled E. coli particles), THP-1 cells
Experimental: Human THP-1 monocytoid cells (acute monocytic leukemia) were obtained from American Type Tissue Collection (#TIB-202). Cells were cultured in RPMI-1640 medium supplemented with 2 mM L-glutamine, 10 mM HEPES, 1.0 mM sodium pyruvate, 10% fetal bovine serum and antibiotics. Primary peripheral blood monocytes (PBM) were isolated from mixed peripheral blood mononuclear cell preparations using the Miltenyi Biotec MACs magnetic separation system. PBM were cultured in the same medium as THP-1 cells, with the exception that 20% fetal bovine serum was used. Cells were seeded (1×10^5 cells/well, 96-well culture plates) 24 h prior to treatment with OxBC, PMA (25 ng/ml) and/or LPS (15 ng/ml) as described below. Cells incubated in an equivalent percentage (v/v) of DMSO alone served as controls.
Phagocytosis in monocyte cultures was evaluated using a Vybrant phagocytosis assay kit (Invitrogen, #V6694) based upon the ingestion of fluorescein-labeled E. coli (strain K12) bacterial particles. Briefly, treated cells were incubated at 37° C. for 5 h with a 1000 suspension of fluorescent bioparticles in Hank's buffered salt solution. […] The trypan blue solution was removed and the number of ingested particles determined using a fluorescence microplate reader (480 nm excitation, 520 nm emission). […] After recovery, the cells were treated with LPS for an 24 h before phagocytosis was measured.

[4] = THP-1, 24 h, PMA 25 ng/ml, proof-of-principle

CCCCCCCCCCCCCC(=O)O[C@@H]1[C@@H](C)[C@@]2(O)[C@@H](C=C(CO)C[C@]3(O)C(=O)C(C)=C[C@@H]23)[C@@H]2C(C)(C)[C@]12OC(C)=O [PMA, Phorbol myristate acetate]
CD11b expression, fold change relative to vehicle controls ([1]; THP-1, 24 h, PMA 25 ng/ml): 0.97 ± 0.02 fold
CD14 expression, fold change relative to vehicle controls ([1]; THP-1, 24 h, PMA 25 ng/ml): 1.91 ± 0.06 fold
CD16 expression, fold change relative to vehicle controls ([1]; THP-1, 24 h, PMA 25 ng/ml): 4.77 ± 0.31 fold
CD36 expression, fold change relative to vehicle controls ([1]; THP-1, 24 h, PMA 25 ng/ml): 1.03 ± 0.01 fold
CD51 expression, fold change relative to vehicle controls ([1]; THP-1, 24 h, PMA 25 ng/ml): 5.07 ± 0.29 fold
B7-2 (CD86) expression, fold change relative to vehicle controls ([1]; THP-1, PMA 25 ng/ml): 2.04 ± 0.29 fold
CD11b receptor density (fluorescence intensity), fold change relative to vehicle controls ([1]; THP-1, PMA 25 ng/ml): 1.97 ± 0.01 fold
CD36 receptor density (fluorescence intensity), fold change relative to vehicle controls ([1]; THP-1, PMA 25 ng/ml): 4.57 ± 0.03 fold
CD40L expression, fold change relative to vehicle controls ([1]; THP-1, PMA 25 ng/ml): 1.4 ± 0.10 fold
CD40 counts, fold change relative to vehicle controls ([1]; THP-1, PMA 25 ng/ml): 0.98 ± 0.01 fold
CD40 intensity, fold change relative to vehicle controls ([1]; THP-1, PMA 25 ng/ml): 1.31 ± 0.1 fold
HLA (DQ/DR/DP) expression, fold change relative to vehicle controls ([1]; THP-1, PMA 25 ng/ml): 1.05 ± 0.01 fold
increase of densities of CD11b and CD36 ([1]; THP-1, PMA 25 ng/ml): 2 to 4 fold
IFNγ [2, 4]: 10.0 ± 1.3 pg/mL
IL-1β [2, 4]: 73.4 ± 2.8 pg/mL
IL-8 [2, 4]: 637.2 ± 18.6 pg/mL
IL-12 [2, 4]: 8.0 ± 6.5 pg/mL
MCP-1 [2, 4]: 654.9 ± 60.2 pg/mL
TNF [2, 4]: 110.1 ± 1.7 pg/mL
IFNγ ([2]; THP-1, PMA 25 ng/ml, Table 3): 24.9 pg/mL
IL-1β ([2]; THP-1, PMA 25 ng/ml, Table 3): 62.5 pg/mL
IL-6 ([2]; THP-1, PMA 25 ng/ml, Table 3): 20.3 pg/mL
IL-8 ([2]; THP-1, PMA 25 ng/ml, Table 3): 712.4 pg/mL
IL-12 ([2]; THP-1, PMA 25 ng/ml, Table 3): 20.9 pg/mL
MCP-1 ([2]; THP-1, PMA 25 ng/ml, Table 3): 574.8 pg/mL
TNF ([2]; THP-1, PMA 25 ng/ml, Table 3): 108.5 pg/mL
phagocytic activity ([3]; THP-1, PMA 24 h, 72 h recovery): large increase in phagocytic activity
increase in phagocytic activity relative to control cultures ([3]; naive THP-1, PMA 25 ng/ml 24 h): 12.94±2.05 fold

— patent US10449247B2, “Compositions and methods for enhancing immune response” (priority 2007, dated 2019)
